# Laboratory results taken from PMC8784342, “Investigation of sugar binding kinetics of the E. coli sugar/H^+ symporter XylE using solid-supported membrane-based electrophysiology” (The Journal of Biological Chemistry, 2021).
# Values joined by “and” are separate entries in the source; they are usually repeats but may differ in a detail not shown here. Equal values may be shown once. Marks after values point to notes of the source that are not given here.
# Legend:
# [1] = molecular target: T1, D27N XylE (Escherichia coli, UniProt P0AGF4, D27N); conditions: relative to D-xylose in wt XylE (100%); cited from earlier work
# T1 construct: made in house; host or cells: E. coli BL21 DE3
# T1 sequence (P0AGF4 whole entry D27N): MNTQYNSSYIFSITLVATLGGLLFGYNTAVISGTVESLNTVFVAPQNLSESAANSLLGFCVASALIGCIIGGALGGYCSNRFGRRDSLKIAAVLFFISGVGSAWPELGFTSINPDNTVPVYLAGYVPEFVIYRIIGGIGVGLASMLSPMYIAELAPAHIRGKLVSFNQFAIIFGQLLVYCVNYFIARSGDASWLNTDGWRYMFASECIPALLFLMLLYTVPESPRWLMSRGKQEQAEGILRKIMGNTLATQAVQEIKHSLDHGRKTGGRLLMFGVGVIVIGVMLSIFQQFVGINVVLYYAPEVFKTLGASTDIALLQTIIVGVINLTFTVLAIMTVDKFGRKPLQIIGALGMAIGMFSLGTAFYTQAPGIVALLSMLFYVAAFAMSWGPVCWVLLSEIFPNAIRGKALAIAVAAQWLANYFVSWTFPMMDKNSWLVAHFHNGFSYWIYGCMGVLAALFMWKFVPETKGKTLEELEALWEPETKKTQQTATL
# [2] = molecular target: T2, wt XylE (Escherichia coli, UniProt P0AGF4); experiment: biochemical; set-up: made in house; host or cells: E. coli BL21 DE3
# T2 sequence (P0AGF4 whole entry): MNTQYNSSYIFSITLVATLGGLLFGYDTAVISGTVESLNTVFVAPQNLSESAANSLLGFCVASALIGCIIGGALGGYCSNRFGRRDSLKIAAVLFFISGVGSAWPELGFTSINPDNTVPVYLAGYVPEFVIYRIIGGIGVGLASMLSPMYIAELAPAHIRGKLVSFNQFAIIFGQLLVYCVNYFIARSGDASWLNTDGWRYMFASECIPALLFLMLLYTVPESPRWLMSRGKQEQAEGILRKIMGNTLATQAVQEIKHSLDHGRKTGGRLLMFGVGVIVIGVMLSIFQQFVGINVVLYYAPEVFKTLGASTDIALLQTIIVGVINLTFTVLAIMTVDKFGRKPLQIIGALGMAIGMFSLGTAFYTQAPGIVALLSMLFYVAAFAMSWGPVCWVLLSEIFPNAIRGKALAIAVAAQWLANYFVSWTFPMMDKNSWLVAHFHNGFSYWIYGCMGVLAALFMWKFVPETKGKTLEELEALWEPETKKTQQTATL
# Procedure: (§1) Reconstitution of purified proteins (2–20 mg/ml) was carried out with E. coli phospholipids (Avanti Polar Lipids, E. coli polar lipid extract). Preformed liposomes (0.2–2 ml, 10 mg/ml) were dissolved in 1% (w/v) n-octyl-β-D-glucoside, and the protein suspension was mixed on ice to a concentration of 0.2 mg protein/mg lipid (LPR 5).
# (§2) Wt XylE, wt FucP, and the mutant proteins were reconstituted using overnight incubation in 400 mg/ml BioBeads (SM-2 Adsorbent Media, Bio-Rad) at 4 °C. After reconstitution, the samples were diluted to 2.5 mg/ml lipid concentration, frozen in liquid nitrogen, and stored at −80 °C. For wt LacY and mutant proteins, this procedure was not successful. We, therefore, applied the previously established n-octyl-β-D-glucoside dilution method (1:100) ([69]).
# (§3) SSM measurements were performed as described ([20], [23]). After thawing the sample and sonication in a water bath, 30 μl of proteoliposomes (2.5 mg/ml lipid at LPR 5) was allowed to adsorb for 1 to 2 h to an octadecanethiol/phosphatidylcholine hybrid bilayer on a gold surface (the sensor).
# (§4) For measurements, a single solution exchange configuration ([23]) was employed that consisted in three phases of 0.5 s duration each: Flow of nonactivating solution (NA), activating solution (A), and nonactivating solution (NA). Only the activating solution contained the sugar. When pH dependence is determined, pH of NA and A solutions during one experiment are kept constant. Between experiments using different pH values, the sensor was incubated at the new pH for 3 min to equilibrate the intraliposomal pH.
# (§5) Instruments with different time resolution were used as required. […] Currents were recorded throughout the entire time and amplified with a current amplifier set to a gain of […] and a rise time of 10 ms (low time-resolution set up) or 3 ms (high time-resolution set up).
# (§6) All NA solutions were buffered in 100 mM KPi at a given pH value. NA solutions used with LacY contained 1 mM DTT in addition. A solutions were made from NA solutions by adding the respective sugar at a given concentration to induce the symport reaction. Sugar concentration jumps initiated sugar-proton symport, and charge transfer was measured by capacitive coupling. Therefore, only transient currents were recorded.
# (§7) Each dataset represented with error bars was generated by performing the same experiment on multiple sensors (n ≥ 3). Error bars represent standard deviations of the average value. When peak currents are averaged across sensors, datasets are normalized before averaging. When the protein catalyzes transport and PSS currents are negligible, the peak current of the transient represents a good approximation of the current generated by the steady-state symport activity of the transporter. In most cases, peak currents have been used to derive kinetic and thermodynamic parameters according to the equations given in Figure 2 (KM, Imax ∼ Vmax, Hill coefficient n), Figure 4 (KD and rate constants for sugar binding kon and release koff), and Figure 6 (pKa for proton binding and pKb for proton release). Reconstruction of transporter currents for analysis of biphasic currents has been performed as described previously ([70]). This is required when transport and PSS currents are observed at the same time.
# [3] = system: XylE; conditions: radioactively labeled sugars; read-out: KM, literature; cited from earlier work
# [4] = molecular target: XylE; set-up: method as in PMID 23075985; conditions: read-out: KD, isothermal titration calorimetry; cited from earlier work
# [5] = molecular target: T2, wt XylE; set-up: made in house; host or cells: E. coli BL21 DE3; conditions: relative to D-xylose in wt XylE (100%); cited from earlier work
# [6] = molecular target: T3, Q175I/L297F XylE (Escherichia coli, UniProt P0AGF4, L297F/Q175I); experiment: biochemical
# T3 construct: made in house; host or cells: E. coli BL21 DE3
# T3 sequence (P0AGF4 whole entry Q175I/L297F): as the sequence (P0AGF4 whole entry D27N) above, with N27D, Q175I, L297F counted along it
# Procedure: as §1
# as §2, with “For wt LacY and mutant proteins, this procedure was not successful.” left out
# as §3, §4, §5, §6, §7
# [7] = molecular target: T2, wt XylE; conditions: cited from earlier work
# [8] = molecular target: T1, D27N XylE; experiment: SSM-based electrophysiology, transport-deficient mutant D27N XylE (PSS currents, electrogenic binding); format: biochemical
# Procedure: as §1, §2, §3, §4, §5, §6, §7
# [9] = molecular target: T1, D27N XylE; conditions: cited from earlier work
smiles,measurement,setting,value
OC1OC[C@@H](O)[C@H](O)[C@H]1O (stereo partly drawn) [D-xylose],Radioactive counterflow activity,[1],90%
same,PSS current higher than that for D-glucose,[2]; independent of pH,165 pA
same,"Q (pC) wt, PSS transferred charge","[2]; pH 3.2, 30 mM substrate",4.0 ± 1.4 (pH 3.2) pC
same,Imax in percent of Imax of the main substrate (D-xylose),[2]; pH 7.6,100%
same,IPeak (pA) fast component,"[2]; pH 7.6, saturating substrate, transport current given as upper limit",<1800 pA
same,Km,[3],100 to 500 µM
same,Kd,[4],0.4 mM
same,Radioactive counterflow activity,[5],100% ^a
same,EC50,"[6]; EC50 (mM) (KM for transport, slow component), pH 7.6",~1.5 mM
same,Imax slow component normalized to D-xylose transport in wt XylE (100%),[6]; pH 7.6,22%
same,Imax (nA) slow component,"[6]; pH 7.6, reconstructed transporter current",0.4 ± 0.1 nA
same,IPeak (pA) fast component,"[6]; pH 7.6, saturating substrate",520 ± 90 pA
same,pKa,"[6]; reconstructed transporter currents, acidic range",4.8 ± 0.1
same,Imax,"[7]; pH 7.6, main substrate",1.8 ± 0.5 nA
same,pKa,"[7]; pH-dependent peak currents, acidic range",4.6 ± 0.2
same,pKb1,"[7]; pH-dependent peak currents, alkaline range, double titration",~7.5
same,Km,"[7]; read-out: KM (mM) Michaelis–Menten equation, pH 7.6, main substrate, in Table 3 headed EC50",~1.5 mM
same,Kd,"[8]; KD (mM) mut, pH 7.6, hyperbolic fit of peak currents, in Table 3 headed EC50",1 ± 0.1 mM
same,Kd,"[8]; KD from fit of concentration-dependent kobs, pH 7.6",5.5 ± 2.1 mM
same,Imax (nA) slow component,[8]; pH 7.6,<0.05 nA
same,"Q (pC) Mut, transferred charge","[8]; pH 7.6, 30 mM substrate",6.8 ± 1.5 (pH 7.6) pC
same,IPeak (pA) fast component,"[8]; pH 7.6, saturating substrate",500 pA and 500 ± 100 pA
same,kobs (s^−1) mut,"[8]; saturating substrate (30 mM), kobs = 1/τ, monoexponential fit, limited by time resolution",300 ± 30 s⁻¹
same,activity in uptake assay,[9],< 1%
